Results reported in PMC6956230, “Sequence Determinants of Substrate Ambiguity in a HAD Phosphosugar Phosphatase of Arabidopsis Thaliana” (Biology, 2019).

Tests used:
AtSgpp (MBP-AtSgpp) [1] = molecular target: T1, AtSgpp (MBP-AtSgpp) (Arabidopsis thaliana, UniProt Q9ZVJ5); assay: phosphate release, molybdate/ascorbic acid assay, Lineweaver-Burk; format: biochemical; settings: 20 mM Tris-HCl pH 7.0, 5 mM MgCl2, 32 °C, MBP fusion, brackets: 95% CI and [SD]
T1 construct: gene SGPP; full-length coding region (735 bp EcoRI/SalI fragment) in pMAL-c2x; N-terminal MBP fusion kept, vector residues Ile-Ser-Glu-Phe before Met1; expressed in E. coli TB1 with pSBETa; amylose resin
T1 sequence (Q9ZVJ5 1-244): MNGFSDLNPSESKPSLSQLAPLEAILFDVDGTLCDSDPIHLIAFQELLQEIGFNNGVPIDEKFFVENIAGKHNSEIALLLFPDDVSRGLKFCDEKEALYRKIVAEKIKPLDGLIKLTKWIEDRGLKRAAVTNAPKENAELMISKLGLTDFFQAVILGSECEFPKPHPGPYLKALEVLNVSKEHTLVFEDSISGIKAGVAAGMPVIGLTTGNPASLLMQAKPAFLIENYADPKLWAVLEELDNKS
From the text: (§1) phosphate release, molybdate/ascorbic acid assay, Lineweaver-Burk on AtSgpp (MBP-AtSgpp)

AtSgpp (MBP-AtSgpp) [2] = molecular target: T2, AtSgpp (MBP-AtSgpp) (Arabidopsis thaliana, UniProt Q9ZVJ5, DEL53-55); assay: as above; format: biochemical; settings: 20 mM Tris-HCl pH 7.0, 5 mM MgCl2, 32 °C, MBP fusion, brackets: 95% CI and [SD]
T2 construct: gene SGPP; full-length coding region (735 bp EcoRI/SalI fragment) in pMAL-c2x; N-terminal MBP fusion kept, vector residues Ile-Ser-Glu-Phe before Met1; expressed in E. coli TB1 with pSBETa; amylose resin
T2 sequence (Q9ZVJ5 with tags, fused parts or gaps DEL53-55): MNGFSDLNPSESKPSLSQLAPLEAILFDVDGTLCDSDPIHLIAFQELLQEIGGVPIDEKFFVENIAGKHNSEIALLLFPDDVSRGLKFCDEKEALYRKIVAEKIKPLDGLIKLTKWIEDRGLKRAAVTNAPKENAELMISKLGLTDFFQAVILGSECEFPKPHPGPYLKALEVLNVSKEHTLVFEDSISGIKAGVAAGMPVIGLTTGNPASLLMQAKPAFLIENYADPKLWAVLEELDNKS
From the text: as §1

SMILES | apparent Km (AtSgpp (MBP-AtSgpp) [1]) | apparent Km (AtSgpp (MBP-AtSgpp) [2])
O=P(O)(O)OC[C@H]1OC(O)[C@H](O)[C@@H](O)[C@@H]1O (stereo partly drawn) [D-glucose-6-phosphate] | 7.1 (6.8–7.4) × 10^−3 [0.3] M | 8.3 (8–8.6) × 10^−3 [0.3] M
O=P(O)(O)OC[C@H]1OC(O)[C@@H](O)[C@@H](O)[C@@H]1O (stereo partly drawn) [D-mannose-6-phosphate] | 4.9 (4.2–5.6) × 10^−3 [0.6] M | 6.7 (6.6–6.8) × 10^−3 [0.1] M
O=P(O)(O)OC[C@H]1OC(O)(CO)[C@@H](O)[C@@H]1O (stereo partly drawn) [D-fructose-6-phosphate] | 7.7 (7.3–8.1) × 10^−3 [0.4] M | 10 (9.5–10.5) × 10^−3 [0.4] M

Results, then the compound that gave them:

apparent Km (AtSgpp (MBP-AtSgpp) [1]) | apparent Km (AtSgpp (MBP-AtSgpp) [2]) | SMILES
3.6 (3.5–3.7) × 10^−3 [0.1] M | 3.7 (3.5–3.9) × 10^−3 [0.2] M | O=P(O)(O)OC[C@H]1OC(O)[C@H](O)[C@@H]1O (stereo partly drawn) [D-ribose-5-phosphate]
7.3 (7.1–7.5) × 10^−3 [0.2] M | 14 (13.7–14.3) × 10^−3 [0.3] M | O=P(O)(O)OCC(O)CO (racemic) [DL-glycerol-3-phosphate]
4.6 (4–5.2) × 10^−3 [0.5] M | 4.7 (4.5–4.9) × 10^−3 [0.2] M | O=P(O)(O)OC[C@H]1OC(O)C[C@@H](O)[C@@H]1O (stereo partly drawn) [2-deoxy-D-glucose-6-phosphate]
